# Results published in patent US20070128217A1 (priority 2003, published 2007).
# How the values were obtained:
# [1] = system: antibodies in sera from SARS patients (sera 1a, 1b, 2, 6, 37, 62, London, SARS-yellow, SARS-green); type: binding, human; parameters: Binding of serum 6 to linear peptides of protein X1 of SARS-CoV Urbani / Binding of serum 37 to linear peptides of protein X1 of SARS-CoV Urbani / Binding of serum 6 to looped/cyclic peptide (PEPSCAN-ELISA) / Binding of serum 37 to looped/cyclic peptide (PEPSCAN-ELISA) / Binding of serum 37 to looped/cyclic peptides of protein X1 of SARS-CoV Urbani / Binding of serum 6 to linear peptides of protein X2 / Binding of serum 37 to linear peptides of protein X2 / Binding of serum 37 to looped/cyclic peptides of protein X2 of SARS-CoV Urbani / Binding of serum 6 to linear peptides of protein M of SARS-CoV Urbani / Binding of serum 37 to linear peptides of protein M of SARS-CoV Urbani / Binding of serum 6 to looped/cyclic peptides of protein M of SARS-CoV Urbani / Binding of serum 37 to looped/cyclic peptides of protein M of SARS-CoV Urbani / Binding of serum 6 to linear peptides of protein X3 of SARS-CoV Urbani / Binding of serum 37 to linear peptides of protein X3 of SARS-CoV Urbani / Binding of serum 37 to looped/cyclic peptides of protein X3 of SARS-CoV Urbani / Binding of serum 6 to linear peptides of protein X4 of SARS-CoV Urbani / Binding of serum 37 to linear peptides of protein X4 of SARS-CoV Urbani / Binding of serum 37 to looped/cyclic peptides of protein X4 of SARS-CoV Urbani / Binding of serum 6 to linear peptides of protein X5 of SARS-CoV Urbani / Binding of serum 37 to linear peptides of protein X5 of SARS-CoV Urbani / Binding of serum 37 to looped/cyclic peptides of protein X5 of SARS-CoV Urbani / Binding of serum 6 to linear peptides of protein N of SARS-CoV Urbani / Binding of serum 37 to linear peptides of protein N of SARS-CoV Urbani / Binding of serum 6 to linear peptide (PEPSCAN-ELISA) / Binding of serum 1a to looped/cyclic peptides of protein N of SARS-CoV Urbani / Binding of serum 1b to looped/cyclic peptides of protein N of SARS-CoV Urbani / Binding of serum 2 to looped/cyclic peptides of protein N of SARS-CoV Urbani / Binding of serum 6 to looped/cyclic peptides of protein N of SARS-CoV Urbani / Binding of serum 37 to looped/cyclic peptides of protein N of SARS-CoV Urbani / Binding of serum 62 to looped/cyclic peptides of protein N of SARS-CoV Urbani / Binding of serum London to looped/cyclic peptides of protein N of SARS-CoV Urbani / Binding of serum SARS-green to looped/cyclic peptides of protein N of SARS-CoV Urbani: unit not given here
# [2] = system: control sera (pooled serum of ten healthy LUMC hospital workers; commercial negative donor pooled serum from the Dutch bloodbank); type: binding, human; parameters: Binding of Control serum LUMC to linear peptides / Binding of Control serum Blood-bank to linear peptides / Binding of Control serum LUMC to looped peptides / Binding of Control Serum Blood-Bank to Looped peptides / Binding of Control serum LUMC to linear peptides of the protein M of SARS-CoV Urbani / Binding of Control serum Blood-bank to linear peptides of the protein M of SARS-CoV Urbani / Binding of Control serum LUMC to looped peptides of the protein M of SARS-CoV Urbani / Binding of Control Serum Blood-Bank to Looped peptides of the protein M of SARS-CoV Urbani: unit not given here
# [3] = system: rabbit serum obtained by immunizing a rabbit with the SARS-CoV strain Frankfurt 1; type: binding; parameters: Binding of a rabbit serum to linear peptides / Binding of a rabbit serum to looped peptides / Rabbit serum linear peptides / Rabbit serum looped peptides / Binding of a rabbit serum to linear peptides of protein N of SARS-CoV Urbani (Rabbit serum linear peptides) / Binding of a rabbit serum to looped/cyclic peptides of protein N of SARS-CoV Urbani (Rabbit serum looped peptides): unit not given here
sequence,measurement,setting,value
IPYNSVTDTIVVTEG,Binding of serum 1a to linear peptides of protein X1 of SARS-CoV Urbani,[1],0.7
same,Binding of serum 1a to looped/cyclic peptides of protein X1 of SARS-CoV Urbani,[1],0.5
same,Binding of serum 1b to linear peptides of protein X1 of SARS-CoV Urbani,[1],0.5
same,Binding of serum 1b to looped/cyclic peptides of protein X1 of SARS-CoV Urbani,[1],0.4
same,Binding of serum 2 to linear peptides of protein X1 of SARS-CoV Urbani,[1],0.5
same,Binding of serum 2 to looped/cyclic peptides of protein X1 of SARS-CoV Urbani,[1],0.4
same,Binding of serum 6 to linear peptides of protein X1 of SARS-CoV Urbani,[1],0.4
same,Binding of serum 6 to looped/cyclic peptides of protein X1 of SARS-CoV Urbani,[1],0.3
same,Binding of serum 37 to linear peptides of protein X1 of SARS-CoV Urbani,[1],0.6
same,Binding of serum 37 to looped/cyclic peptides of protein X1 of SARS-CoV Urbani,[1],0.5
same,Binding of serum 62 to linear peptides of protein X1 of SARS-CoV Urbani,[1],0.4
same,Binding of serum 62 to looped/cyclic peptides of protein X1 of SARS-CoV Urbani,[1],0.5
same,Binding of serum London to linear peptides of protein X1 of SARS-CoV Urbani,[1],0.2
same,Binding of serum London to looped/cyclic peptides of protein X1 of SARS-CoV Urbani,[1],0.2
same,Binding of serum SARS-green to linear peptides of protein X1 of SARS-CoV Urbani,[1],0.3
same,Binding of serum SARS-green to looped/cyclic peptides of protein X1 of SARS-CoV Urbani,[1],0.3
same,Binding of serum SARS-yellow to linear peptides of protein X1 of SARS-CoV Urbani,[1],0.4
same,Binding of serum SARS-yellow to looped/cyclic peptides of protein X1 of SARS-CoV Urbani,[1],0.2
same,Binding of Control Serum Blood-Bank to Looped peptides,[2],0.6
same,Binding of Control serum Blood-bank to linear peptides,[2],0.4
same,Binding of Control serum LUMC to linear peptides,[2],0.5
same,Binding of Control serum LUMC to looped peptides,[2],0.4
same,Binding of a rabbit serum to linear peptides,[3],0.1
same,Binding of a rabbit serum to looped peptides,[3],0.3
MLHSSSLTSLLKTHR,Binding of serum 1a to linear peptides of protein X2,[1],0.6
same,Binding of serum 1a to looped/cyclic peptides of protein X2 of SARS-CoV Urbani,[1],0.5
same,Binding of serum 1b to linear peptides of protein X2,[1],0.4
same,Binding of serum 1b to looped/cyclic peptides of protein X2 of SARS-CoV Urbani,[1],0.5
same,Binding of serum 2 to linear peptides of protein X2,[1],0.4
same,Binding of serum 2 to looped/cyclic peptides of protein X2 of SARS-CoV Urbani,[1],0.5
same,Binding of serum 6 to linear peptides of protein X2,[1],0.6
same,Binding of serum 6 to looped/cyclic peptides of protein X2 of SARS-CoV Urbani,[1],0.2
same,Binding of serum 37 to linear peptides of protein X2,[1],0.5
same,Binding of serum 37 to looped/cyclic peptides of protein X2 of SARS-CoV Urbani,[1],0.3
same,Binding of serum 62 to linear peptides of protein X2,[1],0.5
same,Binding of serum 62 to looped/cyclic peptides of protein X2 of SARS-CoV Urbani,[1],0.5
same,Binding of serum London to linear peptides of protein X2,[1],0.6
same,Binding of serum London to looped/cyclic peptides of protein X2 of SARS-CoV Urbani,[1],0.2
same,Binding of serum SARS-green to linear peptides of protein X2,[1],0.5
same,Binding of serum SARS-green to looped/cyclic peptides of protein X2 of SARS-CoV Urbani,[1],0.4
same,Binding of serum SARS-yellow to linear peptides of protein X2,[1],0.5
same,Binding of serum SARS-yellow to looped/cyclic peptides of protein X2 of SARS-CoV Urbani,[1],0.5
same,Binding of Control Serum Blood-Bank to Looped peptides,[2],0.6
same,Binding of Control serum Blood-bank to linear peptides,[2],0.5
same,Binding of Control serum LUMC to linear peptides,[2],0.4
same,Binding of Control serum LUMC to looped peptides,[2],0.5
same,Binding of a rabbit serum to linear peptides,[3],0.2
same,Binding of a rabbit serum to looped peptides,[3],0.5
DIKDLPKEITVATSR,Binding of serum 1a to linear peptides of protein M of SARS-CoV Urbani,[1],0.7
same,Binding of serum 1a to looped/cyclic peptides of protein M of SARS-CoV Urbani,[1],0.6
same,Binding of serum 1b to linear peptides of protein M of SARS-CoV Urbani,[1],0.5
same,Binding of serum 1b to looped/cyclic peptides of protein M of SARS-CoV Urbani,[1],0.6
same,Binding of serum 2 to linear peptides of protein M of SARS-CoV Urbani,[1],0.5
same,Binding of serum 2 to looped/cyclic peptides of protein M of SARS-CoV Urbani,[1],0.7
same,Binding of serum 6 to linear peptides of protein M of SARS-CoV Urbani,[1],0.5
same,Binding of serum 6 to looped/cyclic peptides of protein M of SARS-CoV Urbani,[1],0.8
same,Binding of serum 37 to linear peptides of protein M of SARS-CoV Urbani,[1],0.6
same,Binding of serum 37 to looped/cyclic peptides of protein M of SARS-CoV Urbani,[1],0.9
same,Binding of serum 62 to linear peptides of protein M of SARS-CoV Urbani,[1],0.5
same,Binding of serum 62 to looped/cyclic peptides of protein M of SARS-CoV Urbani,[1],0.7
same,Binding of serum London to linear peptides of protein M of SARS-CoV Urbani,[1],0.4
same,Binding of serum London to looped/cyclic peptides of protein M of SARS-CoV Urbani,[1],0.3
same,Binding of serum SARS-green to linear peptides of protein M of SARS-CoV Urbani,[1],0.5
same,Binding of serum SARS-green to looped/cyclic peptides of protein M of SARS-CoV Urbani,[1],0.4
same,Binding of serum SARS-yellow to linear peptides of protein M of SARS-CoV Urbani,[1],0.2
same,Binding of serum SARS-yellow to looped/cyclic peptides of protein M of SARS-CoV Urbani,[1],0.7
same,Binding of Control Serum Blood-Bank to Looped peptides of the protein M of SARS-CoV Urbani,[2],0.8
same,Binding of Control serum Blood-bank to linear peptides of the protein M of SARS-CoV Urbani,[2],0.6
same,Binding of Control serum LUMC to linear peptides of the protein M of SARS-CoV Urbani,[2],0.5
same,Binding of Control serum LUMC to looped peptides of the protein M of SARS-CoV Urbani,[2],0.9
same,Rabbit serum linear peptides,[3],0.2
same,Rabbit serum looped peptides,[3],0.3
QCINACRIIMRCWLC,Binding of serum 1a to linear peptides of protein X1 of SARS-CoV Urbani,[1],0.8
same,Binding of serum 1a to looped/cyclic peptide (PEPSCAN-ELISA),[1],0.6
same,Binding of serum 1b to linear peptides of protein X1 of SARS-CoV Urbani,[1],0.6
same,Binding of serum 1b to looped/cyclic peptide (PEPSCAN-ELISA),[1],0.4
same,Binding of serum 2 to linear peptides of protein X1 of SARS-CoV Urbani,[1],0.5
same,Binding of serum 2 to looped/cyclic peptide (PEPSCAN-ELISA),[1],0.6
same,Binding of serum 6 to linear peptides of protein X1 of SARS-CoV Urbani,[1],0.8
same,Binding of serum 6 to looped/cyclic peptide (PEPSCAN-ELISA),[1],0.8
same,Binding of serum 37 to linear peptides of protein X1 of SARS-CoV Urbani,[1],0.7
same,Binding of serum 37 to looped/cyclic peptide (PEPSCAN-ELISA),[1],0.6
same,Binding of serum 62 to linear peptides of protein X1 of SARS-CoV Urbani,[1],0.7
same,Binding of serum 62 to looped/cyclic peptide (PEPSCAN-ELISA),[1],0.7
same,Binding of serum London to linear peptides of protein X1 of SARS-CoV Urbani,[1],0.4
same,Binding of serum London to looped/cyclic peptide (PEPSCAN-ELISA),[1],1.4
same,Binding of serum SARS-green to linear peptides of protein X1 of SARS-CoV Urbani,[1],0.2
same,Binding of serum SARS-green to looped/cyclic peptide (PEPSCAN-ELISA),[1],0.2
same,Binding of serum SARS-yellow to linear peptides of protein X1 of SARS-CoV Urbani,[1],0.3
same,Binding of serum SARS-yellow to looped/cyclic peptide (PEPSCAN-ELISA),[1],0.4
same,Binding of Control Serum Blood-Bank to Looped peptides,[2],0.6
same,Binding of Control serum Blood-bank to linear peptides,[2],0.9
same,Binding of Control serum LUMC to linear peptides,[2],0.7
same,Binding of Control serum LUMC to looped peptides,[2],0.7
same,Recognition of the peptide by the rabbit serum,[3],recognized
LYDANYFVCWHTHNY,Binding of serum 1a to linear peptides of protein X1 of SARS-CoV Urbani,[1],0.9
same,Binding of serum 1a to looped/cyclic peptide (PEPSCAN-ELISA),[1],0.6
same,Binding of serum 1b to linear peptides of protein X1 of SARS-CoV Urbani,[1],0.8
same,Binding of serum 1b to looped/cyclic peptide (PEPSCAN-ELISA),[1],0.5
same,Binding of serum 2 to linear peptides of protein X1 of SARS-CoV Urbani,[1],0.5
same,Binding of serum 2 to looped/cyclic peptide (PEPSCAN-ELISA),[1],0.4
same,Binding of serum 6 to linear peptides of protein X1 of SARS-CoV Urbani,[1],0.7
same,Binding of serum 6 to looped/cyclic peptide (PEPSCAN-ELISA),[1],0.4
same,Binding of serum 37 to linear peptides of protein X1 of SARS-CoV Urbani,[1],0.8
same,Binding of serum 37 to looped/cyclic peptide (PEPSCAN-ELISA),[1],0.6
same,Binding of serum 62 to linear peptides of protein X1 of SARS-CoV Urbani,[1],0.8
same,Binding of serum 62 to looped/cyclic peptide (PEPSCAN-ELISA),[1],0.6
same,Binding of serum London to linear peptides of protein X1 of SARS-CoV Urbani,[1],0.4
same,Binding of serum London to looped/cyclic peptide (PEPSCAN-ELISA),[1],0.2
same,Binding of serum SARS-green to linear peptides of protein X1 of SARS-CoV Urbani,[1],0.4
same,Binding of serum SARS-green to looped/cyclic peptide (PEPSCAN-ELISA),[1],0.3
same,Binding of serum SARS-yellow to linear peptides of protein X1 of SARS-CoV Urbani,[1],0.5
same,Binding of serum SARS-yellow to looped/cyclic peptide (PEPSCAN-ELISA),[1],0.3
same,Binding of Control Serum Blood-Bank to Looped peptides,[2],0.7
same,Binding of Control serum Blood-bank to linear peptides,[2],0.8
same,Binding of Control serum LUMC to linear peptides,[2],0.7
same,Binding of Control serum LUMC to looped peptides,[2],0.5
same,Binding of a rabbit serum to linear peptides,[3],0.1
same,Binding of a rabbit serum to looped peptides,[3],0.5
